{
  "source": "patent US12516067B2",
  "about": "“Antagonists of the muscarinic acetylcholine receptor M4” (Vanderbilt University, priority 2020, dated 2026)",
  "target": "T1, Human M4 (Homo sapiens, UniProt P08173)",
  "T1 construct": "expressed in transfected cells; host or cells: CHO-K1 (ATCC), co-transfected with chimeric G protein Gqi5",
  "T1 sequence (P08173 1-479)": "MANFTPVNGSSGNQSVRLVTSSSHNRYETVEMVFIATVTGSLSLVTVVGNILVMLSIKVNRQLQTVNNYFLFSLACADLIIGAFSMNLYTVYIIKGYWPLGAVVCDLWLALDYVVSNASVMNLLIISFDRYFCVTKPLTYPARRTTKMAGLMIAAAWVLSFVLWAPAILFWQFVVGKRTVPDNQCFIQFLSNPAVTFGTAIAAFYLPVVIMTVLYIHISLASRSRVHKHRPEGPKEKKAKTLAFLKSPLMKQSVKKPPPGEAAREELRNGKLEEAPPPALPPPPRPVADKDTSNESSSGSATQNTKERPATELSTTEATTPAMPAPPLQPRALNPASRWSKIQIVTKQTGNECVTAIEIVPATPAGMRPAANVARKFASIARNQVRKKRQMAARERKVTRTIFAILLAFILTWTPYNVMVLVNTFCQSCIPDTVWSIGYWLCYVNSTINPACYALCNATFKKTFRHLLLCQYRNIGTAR",
  "assay": "mAChR M4 cell-based functional assay (calcium flux, decrease of EC80 acetylcholine response) in M4/Gqi5/CHO-K1 cells",
  "settings": "CHO-K1 cells with human M4 and Gqi5; for remaining activity at 30 µM: % ACh maximum at 30 μM, read-out: Human M4 Emin; for pIC50: antagonist mode: concentration-dependent decrease of response to EC80 acetylcholine",
  "procedure": "Human or rat M4 cDNA, along with the chimeric G protein Gqi5, were transfected into Chinese hamster ovary (CHO-K1) cells purchased from the American Type Culture Collection using Lipofectamine2000. M4/Gqi5/CHO cells were grown in Ham's F-12 medium containing 10% heat-inactivated fetal bovine serum (FBS), 20 mM HEPES, 500 μg/mL G418 sulfate, and 200 μg/mL Hygromycin B.\nFor high throughput measurement of agonist-evoked increases in intracellular calcium, CHO-K1 cells stably expressing muscarinic receptors were plated in growth medium lacking G418 and hygromycin at 15,000 cells/20 μL/well in Greiner 384-well black-walled, tissue culture (TC)-treated, clear-bottom plates (VWR). Cells were incubated overnight at 37° C. and 5% CO2. The next day, cells were washed using an ELX 405 (BioTek) with assay buffer; the final volume was then aspirated to 20 μL. Next, 20 μL of a 2.3 μM stock of Fluo-4/acetoxymethyl ester (Invitrogen, Carlsbad, CA), prepared as a 2.3 mM stock in DMSO and mixed in a 1:1 ratio with 10% (w/v) Pluronic F-127 and diluted in assay buffer, was added to the wells and the cell plates were incubated for 50 min at 37° C. and 5% CO2. Dye was removed by washing with the ELX 405 and the final volume was aspirated to 20 μL. Compound master plates were formatted in a 10 point concentration-response curve (CRC) format (1:3 dilutions) in 100% DMSO with a starting concentration of 10 or 1 mM using a BRAVO liquid handler (Agilent). Test compound CRCs were then transferred to daughter plates (240 nL) using the Echo acoustic plate reformatter (Labcyte, Sunnyvale, CA) and then diluted into assay buffer (40 μL) to a 2× stock using a Thermo Fisher Combi (Thermo Fisher Scientific, Waltham, MA).\nCalcium flux was measured using the Functional Drug Screening System (FDSS) 6000 or 7000 (Hamamatsu Corporation, Tokyo, Japan) as an increase in the fluorescent static ratio. Compounds were applied to cells (20 μL, 2×) using the automated system of the FDSS at 2 seconds into the protocol and the data were collected at 1 Hz. At 143 s, 10 μL of an EC20 concentration of the muscarinic receptor agonist acetylcholine was added (5×), followed by the addition of 12 μL of an EC80 concentration of acetylcholine at the 268 s time point (5×). Agonist activity was analyzed as a concentration-dependent increase in calcium mobilization upon compound addition. Positive allosteric modulator activity was analyzed as a concentration-dependent increase in the EC20 acetylcholine response. Antagonist activity was analyzed as a concentration-dependent decrease in the EC80 acetylcholine response; for the purposes of the tables herein, an IC50 (inhibitory concentration 50) was calculated as a concentration-dependent decrease of the response elicited by an EC80 concentration of acetylcholine. Concentration-response curves were generated using a four-parameter logistical equation in XLFit curve fitting software (IDBS, Bridgewater, NJ) for Excel (Microsoft, Redmond, WA) or Prism (GraphPad Software, Inc., San Diego, CA) or the Dotmatics software platform (Dotmatics, Bishop's Stortford, UK).\nCompounds were synthesized as described above. Activity (IC50 and Emin) was determined in the mAChR M4 cell-based functional assay as described above and the data are shown in Table 1.",
  "note": "pIC50: −log10 of the molar value.",
  "data": [
    {"smiles": "OC1(CN2CCc3c(CNc4ccc(-c5cc(F)ccc5Cl)nn4)csc3C2)CCCCC1", "note": "[A13, 1-((3-(((6-(2-chloro-5-fluorophenyl)pyridazin-3-yl)amino)methyl)-4,7-dihydrothieno[2,3-c]pyridin-6(5H)-yl)methyl)cyclohexan-1-ol]", "values": [
      {"measurement": "remaining activity at 30 µM", "result": 4, "unit": "%"},
      {"measurement": "pIC50", "result": 6.56}
    ]},
    {"smiles": "[2H]C([2H])(C1CCOCC1)N1CCc2c(CNc3ccc(-c4cc(F)ccc4Cl)nn3)csc2C1", "note": "[A16, 6-(2-chloro-5-fluorophenyl)-N-((6-((tetrahydro-2H-pyran-4-yl)methyl-d2)-4,5,6,7-tetrahydrothieno[2,3-c]pyridin-3-yl)methyl)pyridazin-3-amine]", "values": [
      {"measurement": "remaining activity at 30 µM", "result": 5, "unit": "%"},
      {"measurement": "pIC50", "result": 7.33}
    ]},
    {"smiles": "Cc1ccc(F)cc1-c1ccc(NCc2csc3c2CCN(CC2CCOCC2)C3)nn1", "note": "[A5, 6-(5-fluoro-2-methylphenyl)-N-((6-((tetrahydro-2H-pyran-4-yl)methyl)-4,5,6,7-tetrahydrothieno[2,3-c]pyridin-3-yl)methyl)pyridazin-3-amine]", "values": [
      {"measurement": "remaining activity at 30 µM", "result": 5, "unit": "%"},
      {"measurement": "pIC50", "result": 7.11}
    ]},
    {"smiles": "c1ccc(-c2ccc(NCc3cccc4c3CCN(CC3CCOCC3)C4)nn2)cc1", "note": "[B12, 6-phenyl-N-((2-((tetrahydro-2H-pyran-4-yl)methyl)-1,2,3,4-tetrahydroisoquinolin-5-yl)methyl)pyridazin-3-amine]", "values": [
      {"measurement": "remaining activity at 30 µM", "result": 13, "unit": "%"},
      {"measurement": "pIC50", "result": 5.47}
    ]},
    {"smiles": "Fc1ccc(Cl)c(-c2ccc(NCc3csc4c3CCN(CC3CCOCC3)C4)nn2)c1", "note": "[A2, 6-(2-chloro-5-fluorophenyl)-N-((6-((tetrahydro-2H-pyran-4-yl)methyl)-4,5,6,7-tetrahydrothieno[2,3-c]pyridin-3-yl)methyl)pyridazin-3-amine]", "values": [
      {"measurement": "remaining activity at 30 µM", "result": 3, "unit": "%"},
      {"measurement": "pIC50", "result": 7.07}
    ]},
    {"smiles": "Cc1ccc(F)cc1-c1ccc(NCc2cccc3c2CCN(CC2CCOCC2)C3)nn1", "note": "[B10, 6-(5-fluoro-2-methylphenyl)-N-((2-((tetrahydro-2H-pyran-4-yl)methyl)-1,2,3,4-tetrahydroisoquinolin-5-yl)methyl)pyridazin-3-amine]", "values": [
      {"measurement": "remaining activity at 30 µM", "result": 5, "unit": "%"},
      {"measurement": "pIC50", "result": 6.47}
    ]},
    {"smiles": "Fc1ccc(Cl)c(-c2ccc(NCc3cccc4c3CCN(CC3CCCCC3)C4)nn2)c1", "note": "[B3, 6-(2-chloro-5-fluorophenyl)-N-((2-(cyclohexylmethyl)-1,2,3,4-tetrahydroisoquinolin-5-y1)methyl)pyridazin-3-amine]", "values": [
      {"measurement": "remaining activity at 30 µM", "result": 6, "unit": "%"},
      {"measurement": "pIC50", "result": 6.60}
    ]},
    {"smiles": "[2H]C([2H])(C1CCOCC1)N1CCc2c(CNc3ccc(-c4cc(F)ccc4Cl)nn3)cccc2C1", "note": "[B13, 6-(2-chloro-5-fluorophenyl)-N-((2-((tetrahydro-2H-pyran-4-yl)methyl-d2)-1,2,3,4-tetrahydroisoquinolin-5-yl)methyl)pyridazin-3-amine]", "values": [
      {"measurement": "remaining activity at 30 µM", "result": 4, "unit": "%"},
      {"measurement": "pIC50", "result": 6.82}
    ]},
    {"smiles": "CC(=O)Nc1ccc(-c2ccc(NCc3cccc4c3CCN(CC3CCOCC3)C4)nn2)cc1", "note": "[B11, N-(4-(6-(((2-((tetrahydro-2H-pyran-4-yl)methyl)-1,2,3,4-tetrahydroisoquinolin-5-yl)methyl)amino)pyridazin-3-yl)phenyl)acetamide]", "values": [
      {"measurement": "remaining activity at 30 µM", "result": 12, "unit": "%"},
      {"measurement": "pIC50", "result": 5.57}
    ]},
    {"smiles": "FC1(F)CCN(c2ccc(NCc3csc4c3CCN(CC3CCOCC3)C4)nn2)CC1", "note": "[A6, 6-(4,4-difluoropiperidin-1-yl)-N-((6-((tetrahydro-2H-pyran-4-yl)methyl)-4,5,6,7-tetrahydrothieno[2,3-c]pyridin-3-yl)methyl)pyridazin-3-amine]", "values": [
      {"measurement": "remaining activity at 30 µM", "result": 7, "unit": "%"},
      {"measurement": "pIC50", "result": 6.18}
    ]},
    {"smiles": "[2H]C([2H])(C1CCOCC1)N1CCc2c(CNc3ccc(-c4cc(F)cc(F)c4F)nn3)cccc2C1", "note": "[B14, N-((2-((tetrahydro-2H-pyran-4-yl)methyl-d2)-1,2,3,4-tetrahydroisoquinolin-5-yl)methyl)-6-(2,3,5-trifluorophenyl)pyridazin-3-amine]", "values": [
      {"measurement": "remaining activity at 30 µM", "result": 5, "unit": "%"},
      {"measurement": "pIC50", "result": 6.04}
    ]},
    {"smiles": "Fc1ccc(Cl)c(-c2ccc(NCc3csc4c3CCN(Cc3ccccn3)C4)nn2)c1", "note": "[A11, 6-(2-chloro-5-fluorophenyl)-N-((6-(pyridin-2-ylmethyl)-4,5,6,7-tetrahydrothieno[2,3-c]pyridin-3-yl)methyl)pyridazin-3-amine]", "values": [
      {"measurement": "remaining activity at 30 µM", "result": 4, "unit": "%"},
      {"measurement": "pIC50", "result": 6.74}
    ]},
    {"smiles": "Fc1ccc(Cl)c(-c2ccc(NCc3cccc4c3CCN(CCC3CCOCC3)C4)nn2)c1", "note": "[B5, 6-(2-chloro-5-fluorophenyl)-N-((2-(2-(tetrahydro-2H-pyran-4-yl)ethyl)-1,2,3,4-tetrahydroisoquinolin-5-yl)methyl)pyridazin-3-amine]", "values": [
      {"measurement": "remaining activity at 30 µM", "result": 6, "unit": "%"},
      {"measurement": "pIC50", "result": 7.06}
    ]},
    {"smiles": "Fc1ccc(Cl)c(-c2ccc(NCc3csc4c3CCN(CC3CCCCC3)C4)nn2)c1", "note": "[A9, 6-(2-chloro-5-fluorophenyl)-N-((6-(cyclohexylmethyl)-4,5,6,7-tetrahydrothieno[2,3-c]pyridin-3-yl)methyl)pyridazin-3-amine]", "values": [
      {"measurement": "remaining activity at 30 µM", "result": 5, "unit": "%"},
      {"measurement": "pIC50", "result": 7.00}
    ]},
    {"smiles": "c1ccc(-c2ccc(NCc3csc4c3CCN(CC3CCOCC3)C4)nn2)cc1", "note": "[A7, 6-phenyl-N-((6-((tetrahydro-2H-pyran-4-yl)methyl)-4,5,6,7-tetrahydrothieno[2,3-c]pyridin-3-yl)methyl)pyridazin-3-amine]", "values": [
      {"measurement": "remaining activity at 30 µM", "result": 6, "unit": "%"},
      {"measurement": "pIC50", "result": 6.32}
    ]},
    {"smiles": "Fc1ccc(F)c(-c2ccc(NCc3cccc4c3CCN(CC3CCOCC3)C4)nn2)c1", "note": "[B8, 6-(2,5-difluorophenyl)-N-((2-((tetrahydro-2H-pyran-4-yl)methyl)-1,2,3,4-tetrahydroisoquinolin-5-yl)methyl)pyridazin-3-amine]", "values": [
      {"measurement": "remaining activity at 30 µM", "result": 8, "unit": "%"},
      {"measurement": "pIC50", "result": 6.11}
    ]},
    {"smiles": "Cn1cc2cc(-c3ccc(NCc4cccc5c4CCN(CC4CCOCC4)C5)nn3)ccc2n1", "note": "[B9, 6-(2-methyl-2H-indazol-5-yl)-N-((2-((tetrahydro-2H-pyran-4-yl)methyl)-1,2,3,4-tetrahydroisoquinolin-5-yl)methyl)pyridazin-3-amine]", "values": [
      {"measurement": "remaining activity at 30 µM", "result": 8, "unit": "%"},
      {"measurement": "pIC50", "result": 5.90}
    ]},
    {"smiles": "CC(C)(C)CCN1CCc2c(CNc3ccc(-c4cc(F)ccc4Cl)nn3)csc2C1", "note": "[A10, 6-(2-chloro-5-fluorophenyl)-N-((6-(3,3-dimethylbutyl)-4,5,6,7-tetrahydrothieno[2,3-c]pyridin-3-y)methyl)pyridazin-3-amine]", "values": [
      {"measurement": "remaining activity at 30 µM", "result": 4, "unit": "%"},
      {"measurement": "pIC50", "result": 7.07}
    ]},
    {"smiles": "Fc1ccc(F)c(-c2ccc(NCc3csc4c3CCN(CC3CCOCC3)C4)nn2)c1", "note": "[A4, 6-(2,5-difluorophenyl)-N-((6-((tetrahydro-2H-pyran-4-yl)methyl)-4,5,6,7-tetrahydrothieno[2,3-c]pyridin-3-yl)methyl)pyridazin-3-amine]", "values": [
      {"measurement": "remaining activity at 30 µM", "result": 4, "unit": "%"},
      {"measurement": "pIC50", "result": 6.38}
    ]},
    {"smiles": "CC(C)(C)CCN1CCc2c(CNc3ccc(-c4cc(F)ccc4Cl)nn3)cccc2C1", "note": "[B2, 6-(2-chloro-5-fluorophenyl)-N-((2-(3,3-dimethylbutyl)-1,2,3,4-tetrahydroisoquinolin-5-yl)methyl)pyridazin-3-amine]", "values": [
      {"measurement": "remaining activity at 30 µM", "result": 6, "unit": "%"},
      {"measurement": "pIC50", "result": 7.00}
    ]},
    {"smiles": "Fc1cc(F)c(F)c(-c2ccc(NCc3csc4c3CCN(CC3CCOCC3)C4)nn2)c1", "note": "[A1, N-((6-((tetrahydro-2H-pyran-4-yl)methyl)-4,5,6,7-tetrahydrothieno[2,3-c]pyridin-3-yl)methyl)-6-(2,3,5-trifluorophenyl)pyridazin-3-amine]", "values": [
      {"measurement": "remaining activity at 30 µM", "result": 3, "unit": "%"},
      {"measurement": "pIC50", "result": 6.23}
    ]}
  ]
}
